The record followed here is US20240208992A1, “MACROCYCLES AS CFTR MODULATORS” (Idorsia Pharmaceuticals Ltd, priority 2021, published 2024).

The EC50 is the concentration giving half of the maximal effect. A word on the Emax: it is the size of the effect at its maximum, as opposed to the concentration needed.

The target of this assay is human F508del-CFTR (Homo sapiens, UniProt P13569, DEL508-508). The experiment in a line: F508del-CFTR cell surface expression (corrector activity), DiscoveRx ß-galactosidase complementation chemiluminescence assay in recombinant U2OS cell line.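 For all read-outs here: U2OS cells co-expressing ProLink-tagged F508del-CFTR and a membrane-anchored enzyme acceptor, where more surface CFTR restores β-galactosidase activity measured by chemiluminescence.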 To be noted: for EC50: EC50, F508del-CFTR cell surface expression, U2OS cells, 16h compound incubation, geomean values; for Emax: U2OS, in relation to Emax of corrector lumacaftor (=100%), arithmetic mean values.
Sequence of human F508del-CFTR (P13569 with tags, fused parts or gaps DEL508-508): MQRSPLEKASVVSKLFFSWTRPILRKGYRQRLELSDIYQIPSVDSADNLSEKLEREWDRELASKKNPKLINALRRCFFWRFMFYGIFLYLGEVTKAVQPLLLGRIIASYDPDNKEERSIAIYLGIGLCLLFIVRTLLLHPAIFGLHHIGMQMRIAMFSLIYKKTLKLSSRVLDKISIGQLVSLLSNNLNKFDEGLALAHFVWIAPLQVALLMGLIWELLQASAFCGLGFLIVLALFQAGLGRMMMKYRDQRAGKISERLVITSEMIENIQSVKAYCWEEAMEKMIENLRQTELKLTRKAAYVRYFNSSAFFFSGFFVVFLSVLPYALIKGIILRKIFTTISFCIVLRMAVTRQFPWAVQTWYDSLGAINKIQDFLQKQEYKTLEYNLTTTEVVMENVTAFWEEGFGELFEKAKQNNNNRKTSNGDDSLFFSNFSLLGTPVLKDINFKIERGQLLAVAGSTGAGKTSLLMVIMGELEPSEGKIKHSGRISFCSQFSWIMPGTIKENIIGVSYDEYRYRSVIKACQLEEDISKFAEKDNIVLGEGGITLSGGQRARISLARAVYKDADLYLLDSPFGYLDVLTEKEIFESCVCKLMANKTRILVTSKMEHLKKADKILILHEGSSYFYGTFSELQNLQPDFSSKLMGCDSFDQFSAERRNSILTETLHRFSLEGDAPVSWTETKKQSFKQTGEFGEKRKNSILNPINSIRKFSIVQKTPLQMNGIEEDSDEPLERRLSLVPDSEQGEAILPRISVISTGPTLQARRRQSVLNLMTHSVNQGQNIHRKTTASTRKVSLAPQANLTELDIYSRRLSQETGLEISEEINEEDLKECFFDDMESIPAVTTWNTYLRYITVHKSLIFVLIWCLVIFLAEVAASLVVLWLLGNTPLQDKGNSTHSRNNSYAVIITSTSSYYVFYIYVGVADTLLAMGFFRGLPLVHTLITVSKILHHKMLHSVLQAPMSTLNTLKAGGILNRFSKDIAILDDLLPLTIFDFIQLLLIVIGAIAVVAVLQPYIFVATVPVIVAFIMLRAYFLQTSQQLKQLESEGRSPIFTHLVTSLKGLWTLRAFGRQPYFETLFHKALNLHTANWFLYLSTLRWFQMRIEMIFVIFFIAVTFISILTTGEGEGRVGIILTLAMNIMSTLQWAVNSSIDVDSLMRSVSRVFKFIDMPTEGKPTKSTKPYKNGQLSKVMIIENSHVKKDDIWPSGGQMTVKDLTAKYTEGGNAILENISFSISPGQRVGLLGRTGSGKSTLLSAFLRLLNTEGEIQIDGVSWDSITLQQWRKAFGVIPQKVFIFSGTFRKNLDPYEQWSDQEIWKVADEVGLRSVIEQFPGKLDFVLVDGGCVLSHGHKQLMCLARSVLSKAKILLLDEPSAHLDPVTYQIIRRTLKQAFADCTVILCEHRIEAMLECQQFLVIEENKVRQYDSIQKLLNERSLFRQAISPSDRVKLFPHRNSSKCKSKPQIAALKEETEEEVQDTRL

As to `CC(C)C[C@H]1C(=O)N2CCCC[C@@H]2C(=O)N[C@H](Cc2ccccc2)COc2ccncc2C(=O)N[C@H](C(=O)NCCc2ccc3c(c2)OCC3)CC(=O)N1C` [Example 593, (7S,11S,17aR,20R)-20-benzyl-N-(2-(2,3-dihydrobenzofuran-6-yl)ethyl)-11-isobutyl-10-methyl-5,9,12,18-tetraoxo-5,6,7,8,9,10,11,12,15,16,17,17a,18,19,20,21-hexadecahydro-14H-dipyrido[2,1-f:3′,4′-p][1]oxa[4,7,10,14]tetraazacycloheptadecine-7-carboxamide], the EC50 was 614 nM and the Emax turned out to be 190%.
The like results for `CC(C)C[C@H]1C(=O)N2CCCC[C@@H]2C(=O)N[C@H](Cc2ccccc2)COc2ccncc2C(=O)N[C@H](C(=O)NCCc2ccc3c(c2)OCCO3)CC(=O)N1C` [Example 594, (7S,11S,17aR,20R)-20-benzyl-N-(2-(2,3-dihydrobenzo[b][1,4]dioxin-6-yl)ethyl)-11-isobutyl-10-methyl-5,9,12,18-tetraoxo-5,6,7,8,9,10,11,12,15,16,17,17a,18,19,20,21-hexadecahydro-14H-dipyrido[2,1-f:3′,4′-p][1]oxa[4,7,10,14]tetraazacycloheptadecine-7-carboxamide] were, in that order, 810 nM and 171%.
With `COc1cccc(CCNC(=O)[C@@H]2CC(=O)N(C)[C@@H](CC(C)C)C(=O)N(C)CC(=O)N[C@H](Cc3ccccc3)COc3ccc4ccccc4c3C(=O)N2)c1` [Example 595, (3S,7S,13R)-13-benzyl-7-isobutyl-N-(3-methoxyphenethyl)-6,9-dimethyl-1,5,8,11-tetraoxo-1,2,3,4,5,6,7,8,9,10,11,12,13,14-tetradecahydronaphtho[1,2-p][1]oxa[4,7,10,14]tetraazacycloheptadecine-3-carboxamide], the EC50 was found to be 332 nM and the Emax came to 233%.
As to `COc1cc2c(cc1OC)C(=O)N[C@H](C(=O)NCCc1ccc3c(c1)OCCC3)CC(=O)N(C)[C@@H](CC(C)C)C(=O)N(CCC1CCCCC1)CC(=O)N[C@H](Cc1ccccc1)CO2` [Example 596, (3R,9S,13S)-3-benzyl-N-(2-(chroman-7-yl)ethyl)-7-(2-cyclohexylethyl)-9-isobutyl-17,18-dimethoxy-10-methyl-5,8,11,15-tetraoxo-2,3,4,5,6,7,8,9,10,11,12,13,14,15-tetradecahydrobenzo[p][1]oxa[4,7,10,14]tetraazacycloheptadecine-13-carboxamide], the EC50 was determined as 167 nM and the Emax was 195%.
Regarding `COc1cc2c(cc1OC)C(=O)N[C@H](C(=O)NCCc1ccc3c(c1)OCC3)CC(=O)N(C)[C@@H](CC(C)C)C(=O)N(CCC1CCCCC1)CC(=O)N[C@H](Cc1ccccc1)CO2` [Example 597, (3R,9S,13S)-3-benzyl-7-(2-cyclohexylethyl)-N-(2-(2,3-dihydrobenzofuran-6-yl)ethyl)-9-isobutyl-17,18-dimethoxy-10-methyl-5,8,11,15-tetraoxo-2,3,4,5,6,7,8,9,10,11,12,13,14,15-tetradecahydrobenzo[p][1]oxa[4,7,10,14]tetraazacycloheptadecine-13-carboxamide], the EC50 worked out at 168 nM and the Emax amounted to 211%.
On to `COc1cccc(CCNC(=O)[C@@H]2CC(=O)N(C)[C@@H](CC(C)C)C(=O)N(C)CC(=O)N[C@H](Cc3ccccc3)COc3ccc4nc(C)oc4c3C(=O)N2)c1` [Example 598, (8R,14S,18S)-8-benzyl-14-isobutyl-N-(3-methoxyphenethyl)-2,12,15-trimethyl-10,13,16,20-tetraoxo-7,8,9,10,11,12,13,14,15,16,17,18,19,20-tetradecahydrooxazolo[4′,5′:5,6]benzo[1,2-p][1]oxa[4,7,10,14]tetraazacycloheptadecine-18-carboxamide], for which the 50% effective concentration (EC50) was found to be 759 nM and the Emax was found to be 312%.
In the same order, the values of `CC(C)C[C@H]1C(=O)N(CCC2CCCCC2)CC(=O)N[C@H](Cc2ccccc2)COc2ccc3ccccc3c2C(=O)N[C@H](C(=O)NCCc2ccc3c(c2)OCCC3)CC(=O)N1C` [Example 599, (3S,7S,13R)-13-benzyl-N-(2-(chroman-7-yl)ethyl)-9-(2-cyclohexylethyl)-7-isobutyl-6-methyl-1,5,8,11-tetraoxo-1,2,3,4,5,6,7,8,9,10,11,12,13,14-tetradecahydronaphtho[1,2-p][1]oxa[4,7,10,14]tetraazacycloheptadecine-3-carboxamide] are 151 nM and 299%.
Consider `CC(C)C[C@H]1C(=O)N(CCC2CCCCC2)CC(=O)N[C@H](Cc2ccccc2)COc2ccc3ccccc3c2C(=O)N[C@H](C(=O)NCCc2ccc3c(c2)OCC3)CC(=O)N1C` [Example 600, (3S,7S,13R)-13-benzyl-9-(2-cyclohexylethyl)-N-(2-(2,3-dihydrobenzofuran-6-yl)ethyl)-7-isobutyl-6-methyl-1,5,8,11-tetraoxo-1,2,3,4,5,6,7,8,9,10,11,12,13,14-tetradecahydronaphtho[1,2-p][1]oxa[4,7,10,14]tetraazacycloheptadecine-3-carboxamide], for which the EC50 is 97 nM and the Emax stood at 286%.
The like results for `COc1cccc(CCNC(=O)[C@@H]2CC(=O)N(C)[C@@H](CC(C)C)C(=O)N3CCCC[C@H]3C(=O)N[C@H](Cc3ccccc3)COc3cc(OC)cc(OC)c3C(=O)N2)c1` [Example 601, (7S,11S,20R,22aS)-20-benzyl-7-isobutyl-14,16-dimethoxy-N-(3-methoxyphenethyl)-8-methyl-6,9,13,22-tetraoxo-1,3,4,6,7,8,9,10,11,12,13,19,20,21,22,22a-hexadecahydro-2H-benzo[p]pyrido[2,1-f][1]oxa[4,7,10,14]tetraazacycloheptadecine-11-carboxamide] were, in that order, 589 nM and 138%.
As for `COc1cccc(CCNC(=O)[C@@H]2CC(=O)N(C)[C@@H](CC(C)C)C(=O)N3CCCC[C@@H]3C(=O)N[C@H](Cc3ccccc3)COc3cc(OC)cc(OC)c3C(=O)N2)c1` [Example 602, (7S,11S,20R,22aR)-20-benzyl-7-isobutyl-14,16-dimethoxy-N-(3-methoxyphenethyl)-8-methyl-6,9,13,22-tetraoxo-1,3,4,6,7,8,9,10,11,12,13,19,20,21,22,22a-hexadecahydro-2H-benzo[p]pyrido[2,1-f][1]oxa[4,7,10,14]tetraazacycloheptadecine-11-carboxamide], the EC50 turned out to be 286 nM and the Emax was 299%.
In the case of `COc1cccc(CCNC(=O)[C@@H]2CC(=O)N(C)[C@@H](CC(C)C)C(=O)N3CCCC[C@@H]3C(=O)N[C@H](Cc3ccccc3)COc3ccc4ccccc4c3C(=O)N2)c1` [Example 603, (4aR,7R,18S,22S)-7-benzyl-22-isobutyl-N-(3-methoxyphenethyl)-21-methyl-5,16,20,23-tetraoxo-2,3,4,4a,5,6,7,8,16,17,18,19,20,21,22,23-hexadecahydro-1H-naphtho[1,2-p]pyrido[2,1-f][1]oxa[4,7,10,14]tetraazacycloheptadecine-18-carboxamide], the EC50 came to 205 nM and the Emax was 301%.
The like results for `COc1cccc(CCNC(=O)[C@@H]2CC(=O)N(C)[C@@H](CC(C)C)C(=O)N3CCCC[C@H]3C(=O)N[C@H](Cc3ccccc3)COc3ccc4ccccc4c3C(=O)N2)c1` [Example 604, (4aS,7R,18S,22S)-7-benzyl-22-isobutyl-N-(3-methoxyphenethyl)-21-methyl-5,16,20,23-tetraoxo-2,3,4,4a,5,6,7,8,16,17,18,19,20,21,22,23-hexadecahydro-1H-naphtho[1,2-p]pyrido[2,1-f][1]oxa[4,7,10,14]tetraazacycloheptadecine-18-carboxamide] were, in that order, 354 nM and 103%.
`CCN1CCN2C(=O)[C@H](CC(C)C)N(C)C(=O)C[C@@H](C(=O)NCCc3cccc(OC)c3)NC(=O)c3c(OC)cccc3OC[C@@H](Cc3ccccc3)NC(=O)[C@H]2C1` [Example 605, (7S,11S,20R,22aR)-20-benzyl-2-ethyl-7-isobutyl-14-methoxy-N-(3-methoxyphenethyl)-8-methyl-6,9,13,22-tetraoxo-1,3,4,6,7,8,9,10,11,12,13,19,20,21,22,22a-hexadecahydro-2H-benzo[p]pyrazino[2,1-f][1]oxa[4,7,10,14]tetraazacycloheptadecine-11-carboxamide]: the EC50 worked out at 637 nM and the Emax was 257%.
Take `Cc1cc(CCNC(=O)[C@@H]2CC(=O)N(C)[C@@H](CC(C)C)C(=O)N3CCCC[C@H]3C(=O)N[C@H](Cc3ccccc3)COc3ccc4ccccc4c3C(=O)N2)on1` [Example 606, (4aS,7R,18S,22S)-7-benzyl-22-isobutyl-21-methyl-N-(2-(3-methylisoxazol-5-yl)ethyl)-5,16,20,23-tetraoxo-2,3,4,4a,5,6,7,8,16,17,18,19,20,21,22,23-hexadecahydro-1H-naphtho[1,2-p]pyrido[2,1-f][1]oxa[4,7,10,14]tetraazacycloheptadecine-18-carboxamide]: the EC50 is 521 nM and the Emax came out at 150%.
As for `Cc1cc(CCNC(=O)[C@@H]2CC(=O)N(C)[C@@H](CC(C)C)C(=O)N3CCCC[C@@H]3C(=O)N[C@H](Cc3ccccc3)COc3ccc4ccccc4c3C(=O)N2)on1` [Example 607, (4aR,7R,18S,22S)-7-benzyl-22-isobutyl-21-methyl-N-(2-(3-methylisoxazol-5-yl)ethyl)-5,16,20,23-tetraoxo-2,3,4,4a,5,6,7,8,16,17,18,19,20,21,22,23-hexadecahydro-1H-naphtho[1,2-p]pyrido[2,1-f][1]oxa[4,7,10,14]tetraazacycloheptadecine-18-carboxamide], the EC50 came out at 121 nM and the Emax came to 283%.
Regarding `Cc1cc(CCNC(=O)[C@@H]2CC(=O)N(C)[C@@H](CC(C)C)C(=O)N3CCOC[C@@H]3C(=O)N[C@H](Cc3ccccc3)COc3ccc4ccccc4c3C(=O)N2)on1` [Example 608, (4aR,7R,18S,22S)-7-benzyl-22-isobutyl-21-methyl-N-(2-(3-methylisoxazol-5-yl)ethyl)-5,16,20,23-tetraoxo-1,2,4,4a,5,6,7,8,16,17,18,19,20,21,22,23-hexadecahydronaphtho[1,2-p][1,4]oxazino[3,4-f][1]oxa[4,7,10,14]tetraazacycloheptadecine-18-carboxamide], the EC50 was 804 nM and the Emax was found to be 267%.
